{"source": "patent US4853401A", "about": "“Spiro-hydantoins as aldose reductase inhibitors” (priority 1987, dated 1989)", "key": {"[1]": {"test_system": "sorbitol accumulation in crystalline lenses", "experiment": "Effect of in vivo doses on sorbitol accumulation in crystalline lenses of diabetic rats", "set-up": "species or system Sprague Dawley rats", "excerpt": "2.2 Effect of \"in vivo\" doses on sorbitol accumulation in sciatic nerves and crystalline lenses of diabetic rats:\nEstimates were made of the effects of the products on the proportion of plasma glucose and the sorbitol content of the crystalline lenses and sciatic nerves of rats."}, "[2]": {"experiment": "Curative effect of single dose: plasma glucose", "format": "in vivo, Sprague Dawley rats", "details": "for Plasma glucose, treated: 10 mg/kg oral 24 h after diabetes induction", "description": "2.3.2. Curative effect: CP 3192 AR was administered 24 hours after induction of diabetes.\nAs before, the experiment was made on 33 male Sprague Dawley rats weighing about 200 g. The 33 rats, which had been fasted the previous day, were made diabetic by an intraperitoneal injection of streptozotocin (75 mg/kg).\n24 hours after induction of diabetes, 3 rats were sacrificed and used as diabetic controls. A dose of 10 mg/kg of CP 3192 AR was orally administered to 15 rats whereas the other 15 were given the excipient without an active product. 3 control rats and 3 rats treated with CP 3192 AR were sacrificed 2, 4, 8, 24 and 48 hours after administration of the product.\nEstimates were made of the effects of the product on the proportion of plasma glucose and the sorbitol content of the crystalline lenses and sciatic nerves of rats made diabetic by streptozotocin."}, "[3]": {"experiment": "Effect of in vivo doses on plasma glucose of diabetic rats", "set-up": "species or system Sprague Dawley rats", "details": "n = 5, average ± standard deviation", "description": "Compound No. 1 (CP 3182 AR) and No. 2 (CP 3192 AR) were evaluated at various doses, using the experimental model described hereinbefore (.sctn.2.1).\nIn the case of each product, 25 Sprague Dawley rats fasted the previous day were made diabetic by an intraperitoneal injection of streptozotocin (75 mg/kg). The rats were divided into 5 groups of 5, each orally given 0.3, […] or 10 mg/kg of CP 3182 AR or a control.\nAn identical experiment was performed with CP 3192 AR at the same doses. Treatment was given immediately after the streptozotocin, and 7 and 24 hours later. The animals were sacrificed 27 hours after induction. Estimates were made of the effects of the products on the proportion of plasma glucose and the sorbitol content of the crystalline lenses and sciatic nerves of rats."}, "mice": {"test_system": "mice", "experiment": "Effect on behaviour (Irwin method), side effects", "format": "in vivo", "description": "The effect on behaviour was studied by a method derived from that of S. Irwin (Gordon Res. Conf. on Medicinal Chem., 133, 1959). The substances, suspended in 1% tragacanth mucilage, were orally administered via an intra-gastric probe to groups of 5 male mice fasted for 18 hours. The maximum tested dose was 3 000 mg/kg or 1 000 mg/kg, and smaller doses were tested if an effect has been observed.\n(§1) Behaviour was studied, 2, 4, 6 and 24 hours after treatment. Observation was continued if symptoms persisted at that time. Deaths were recorded during the 14 days after treatment. The results are given in Table II, in which the numbers of the compounds are the same as the numbers given in column 1 of Table I."}, "[4]": {"test_system": "accumulation of sorbitol in the crystalline lenses", "experiment": "Inhibition of accumulation of sorbitol in crystalline lenses of diabetic rats", "format": "in vivo, Sprague Dawley rats", "description": "(§2) 2.1 Inhibition of accumulation of sorbitol in crystalline lenses and nerves of diabetic rats:\n(§3) The effects of the products according to the invention on the proportion of plasma glucose and the accumulation of sorbitol in the crystalline lenses and sciatic nerves of rats made diabetic by streptozotocin were examined by the method of M. J. Peterson, et al (Metabolism, 28, 456-461 (1979)).\n(§4) Fasted Sprague Dawley rats were made diabetic by intraperitoneal injection of streptozotocin (75 mg/kg). The product under test was orally administered at a dose of 25 mg/kg after 0, 7 and 24 hours. The rats were sacrificed 27 hours after induction of diabetes. The crystalline lenses and sciatic nerves were taken and preserved at -20° C. until analysed. The crystalline lenses and sciatic nerves were homogenized in water and the proteins were precipitated from ethanol. The precipitate was eliminated by centrifuging and the supernatant liquid was lyophylised. The sorbitol in the sample was determined by the method of B. Bjorkqvist (J. of Chromatograph, 218, 65-71 (1981)), adapted by A. Lenaers et al. (Arch. Intern. Physiol. Bioch., 91, B, 62-63 (1983)).\n(§5) The sample was dissolved in pyridine containing galactitol as an internal standard. Derivatives were formed therefrom by phenylisocyanate during incubation for 1 hour at 60° C. The reaction was then stopped by adding methanol and the derivatives were separated and determined by HPLC.\n(§6) The results are expressed as percentage inhibition of the accumulation of sorbitol, compared with the controls."}, "[5]": {"test_system": "accumulation of sorbitol in the sciatic nerves", "experiment": "Preventive effect of single dose: sorbitol in sciatic nerves", "format": "in vivo, Sprague Dawley rats", "details": "10 mg/kg oral", "description": "2.3. In vivo effects of a single dose of compound No. 2 (CP 3192 AR) on the variation in the proportion of plasma glucose and the accumulation of sorbitol in the crystalline lenses and sciatic nerves of diabetic rats.\n2.3.1. Preventive effect. CP 3192 AR was administered simultaneously with the induction of diabetes. The experiment was performed on 33 male Sprague Dawley rats weighing about 200 g.\nAt time 0 hours, 3 rats were sacrificed and used as non-diabetic controls. 30 fats fasted the previous day were made diabetic by an intraperitoneal injection of streptozotocin (75 mg/kg). A dose of 10 mg/kg of CP 3192 AR was simultaneously administered orally to 15 of the rats. The other 15 were given a placebo. 3 control rats and 3 rats treated with CP 3192 AR were sacrificed 2, 4, 8, 24 and 48 hours after induction of diabetes.\nAn estimate was made of the effects of the product on the proportion of plasma glucose and the sorbitol content of the crystalline lenses and sciatic nerves."}, "[6]": {"test_system": "accumulation of sorbitol in the sciatic nerves", "experiment": "Inhibition of accumulation of sorbitol in sciatic nerves of diabetic rats", "format": "in vivo, Sprague Dawley rats", "details": "oral 25 mg/kg at 0, 7 and 24 h, sacrificed 27 h", "description": "as §2, §3, §4, §5, §6"}, "[7]": {"experiment": "Acute oral toxicity (LD50)", "format": "in vivo", "details": "mouse, in vivo, mice, read-out: Lethal dose LD50", "description": "The LD 50 was calculated by the method of Litchfield and Wilcoxon (J. Pharmacol. Exp. Ther., 96, 99, 1949) and is expressed in mg/kg. The products were orally administered to mice.\nas §1"}}, "data": [{"smiles": "CC(=O)OCN1C(=O)N(COC(C)=O)C2(C1=O)c1ccccc1-c1ccccc12", "note": "[Compound 2, bis-(1',3'-acetoxymethyl)-spiro-/fluorene-9,4'-imidazolidine/-2',5'-dione]", "values": [{"measurement": "mutagenic effect", "setting": "Ames test", "result": "does not have a mutagenic effect"}, {"measurement": "% inhibition of sorbitol accumulation, Crystalline lenses", "setting": "[1]; 0.3 mg/kg oral at 0, 7, 24 h", "result": "3 ± 25", "unit": "%"}, {"measurement": "% inhibition of sorbitol accumulation, Crystalline lenses", "setting": "[1]; 1 mg/kg oral at 0, 7, 24 h", "result": 13, "unit": "%"}, {"measurement": "% inhibition of sorbitol accumulation, Crystalline lenses", "setting": "[1]; 3 mg/kg oral at 0, 7, 24 h", "result": 46, "unit": "%"}, {"measurement": "% inhibition of sorbitol accumulation, Crystalline lenses", "setting": "[1]; 10 mg/kg oral at 0, 7, 24 h", "result": 66, "unit": "%"}, {"measurement": "ED50", "setting": "[1]; Rattus norvegicus, 27 h, crystalline lenses, diabetic rats, oral, read-out: ED50 (dose at which measured inhibition of aldose reductase activity is 50%)", "result": 3, "unit": "mg/kg"}, {"measurement": "therapeutic index MED/ED50, crystalline lenses", "setting": "[1]; crystalline lenses", "result": "about 1 000"}, {"measurement": "Plasma glucose, treated", "setting": "[2]; 2 h", "result": "406 ± 28", "unit": "mg/100 ml"}, {"measurement": "Plasma glucose, treated", "setting": "[2]; 4 h", "result": "459 ± 73", "unit": "mg/100 ml"}, {"measurement": "Plasma glucose, treated", "setting": "[2]; 8 h", "result": "575 ± 14", "unit": "mg/100 ml"}, {"measurement": "Plasma glucose, treated", "setting": "[2]; 24 h", "result": "478 ± 83", "unit": "mg/100 ml"}, {"measurement": "Plasma glucose, treated", "setting": "[2]; 48 h", "result": "456 ± 117", "unit": "mg/100 ml"}, {"measurement": "effect on the proportion of plasma glucose", "setting": "[2]; single dose 10 mg/kg", "result": "no effect"}, {"measurement": "Plasma glucose", "setting": "[3]; 0.3 mg/kg oral", "result": "425 ± 82", "unit": "mg/100 ml"}, {"measurement": "Plasma glucose", "setting": "[3]; 1 mg/kg oral", "result": "444 ± 76", "unit": "mg/100 ml"}, {"measurement": "Plasma glucose", "setting": "[3]; 3 mg/kg oral", "result": "446 ± 70", "unit": "mg/100 ml"}, {"measurement": "Plasma glucose", "setting": "[3]; 10 mg/kg oral", "result": "472 ± 55", "unit": "mg/100 ml"}, {"measurement": "side effect observed", "setting": "mice; dose of 3000 mg/kg", "result": "no side effect was observed"}, {"measurement": "MED (minimum dose at which a side effect is observed)", "setting": "mice; mice, oral", "result": "> 3 000 mg/kg"}, {"measurement": "Inhibition of accumulation of sorbitol in vivo, crystalline lenses", "setting": "[4]; oral 25 mg/kg at 0, 7 and 24 h, sacrificed 27 h", "result": 86, "unit": "%"}, {"measurement": "inhibition of accumulation of sorbitol in crystalline lenses and sciatic nerves (in words)", "setting": "[4]; oral 25 mg/kg, lenses and sciatic nerves", "result": "particularly active"}, {"measurement": "Accumulation of sorbitol in sciatic nerves, treated", "setting": "[5]; 2 h, p < 0.05", "result": "1.23 ± 0.2", "unit": "µg"}, {"measurement": "Accumulation of sorbitol in sciatic nerves, treated", "setting": "[5]; 4 h, p < 0.005", "result": "1.8 ± 0.2", "unit": "µg"}, {"measurement": "Accumulation of sorbitol in sciatic nerves, treated", "setting": "[5]; 8 h, p < 0.0005", "result": "1.8 ± 0.5", "unit": "µg"}, {"measurement": "Accumulation of sorbitol in sciatic nerves, treated", "setting": "[5]; 24 h, p < 0.05", "result": "4.0 ± 1.0", "unit": "µg"}, {"measurement": "Accumulation of sorbitol in sciatic nerves, treated", "setting": "[5]; 48 h, p < 0.05", "result": "4.6 ± 1.7", "unit": "µg"}, {"measurement": "Inhibition of accumulation of sorbitol in vivo, in sciatic nerves", "setting": "[6]", "result": 85, "unit": "%"}, {"measurement": "LD50 at 336 h", "setting": "[7]", "result": "> 3000", "unit": "mg/kg"}]}]}
